Entries after “also recorded” stand apart in the source; their conditions may differ.
Tested on: HBE4 cells
Test: Trans-well invasion assay
Assay type: cell-based, human
Details: HBE4, 12 hrs, vs Scr, after 15% downward adjustment
Source text: We then tested the potential impact of piR-L-163 in cell migration and invasion, two of the properties involving ERM's biological functions (Fehon, R. G., Mclatchey, A. I. & Bretscher, A. Organizing the cell cortex: the role of ERM proteins. Nat Rev Mol Cell Biol. 11, 276-287 (2010); Hunter, K. W. Ezrin, a key component in tumor metastasis. Trends Mol. Med. 10, 201-204 (2004); Luo, Y. et al. Recognition of CD146 as an ERM-binding protein offers novel mechanisms for melanoma cell migration. Oncogene 31, 306-321 (2013); Clucas, J. & Valderrama, F. ERM proteins in cancer progression. J Cell Sci. 128, 1253 (2015)).
Briefly, 24 hrs after transfection, 6×10^4 cells were placed in the upper chamber of Matrigel Invasion Chambers (BD Bioscience) with growth factor-free Keratinocyte-SFM and the bottom chamber were exposed to Keratinocyte-SFM medium supplemented with L-Glutamine, prequalified human recombinant EGF 1-53 and BPE. Invading cells were evaluated after 12 hrs according to the manufacturer's instruction. The numbers of invading cells were adjusted 15% downwards for Ant-163 treated cells or 15% upwards for piR-L-163 treated cells to compensate the differences for the proliferation rates.

For “Ant-163: DNA sequence antisense to piR-L-163, SEQ ID NO:496, 5′-GGTCAGAGAATCAAAGTAACATCATGATAT-3′ (DNA, backbone and methylation of C not given here)”, the invasion capability was “significantly increased invasion capability; also recorded: increased invading cells”.
